*1 amine or outer side, *2 acyl side, *3 side chain or, on linkers, in order; H or OH if unused. Where a SMILES comes first, the peptide text is derived from it. Side-chain parts run from the residue outwards. [ ]: non-standard residue; d: D form. The star is where a group is joined. C20 diacid = O=C(O)CCCCCCCCCCCCCCCCCCC(=O)*; C18 diacid = O=C(O)CCCCCCCCCCCCCCCCC(=O)*; γGlu = O=C(O)[C@H](CCC(=O)[*:2])N[*:1]; NMeI = CC[C@H](C)[C@H](NC)C(=O)O; αMeL = CC(C)C[C@](C)(N)C(=O)O; AEEA = NCCOCCOCC(=O)O; Aib = CC(C)(N)C(=O)O
Key:
[1] = Pharmacokinetics in male Sprague Dawley rats after subcutaneous administration; assay type: in vivo; details: plasma, rat, SC, 0.1 mg/kg
human CRF2a receptor = target: T1, human CRF2a receptor (Homo sapiens, UniProt Q13324); assay: Activity at human CRF2a receptor, cAMP functional assay in TeloHEAC cells; assay type: cell-based; details: TeloHEAC cells stably expressing human CRF2a receptor, relative to urocortin 2 (100 nM = 100%)
T1 construct: expressed in transfected cells; host or cells: TeloHEAC cells
T1 sequence (Q13324 1-411): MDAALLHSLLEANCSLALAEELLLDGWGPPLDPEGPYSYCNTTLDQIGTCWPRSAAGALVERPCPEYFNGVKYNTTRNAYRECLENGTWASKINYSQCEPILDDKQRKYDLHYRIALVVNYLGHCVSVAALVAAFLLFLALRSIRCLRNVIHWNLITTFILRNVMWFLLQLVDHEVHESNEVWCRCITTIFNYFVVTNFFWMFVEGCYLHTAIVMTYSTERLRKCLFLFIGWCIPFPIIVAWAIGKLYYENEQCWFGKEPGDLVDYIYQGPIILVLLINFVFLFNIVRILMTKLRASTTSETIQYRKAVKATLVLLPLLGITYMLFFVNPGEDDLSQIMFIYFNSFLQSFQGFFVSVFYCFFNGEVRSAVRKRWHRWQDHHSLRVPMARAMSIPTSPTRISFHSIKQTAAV
Procedure, shortened: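 cAMP accumulation was measured by HTRF 665/620 nm ratio after 30 min at 37° C compound exposure (16 twofold dilutions) of CRF2a-expressing TeloHEAC cells, 10000/well, in HEPES-buffered HBSS plus IBMX. Activity was normalised to urocortin 2 at 100 nM (100%), and EC50 was the concentration giving half-maximal activation.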

[2] = In vitro plasma stability, human plasma; assay type: in vitro ADME; design: dose or concentration left out as unconfirmed; details: Human PLM, 37° C.
Procedure: In vitro plasma metabolic stability was studied in male Sprague Dawley rats and human. Test compounds were incubated at 3 M for 2 hours at 37° C. At each time point (0, 0.25, 1 and 2 h), samples were prepared for analysis by means of a single step protein precipitation technique by adding 150 μL of ethanol, 0.1% formic acid to 50 μL aliquots of plasma. Samples were mixed by vortex for homogeneity and then subjected to centrifugation at 14000 rpm for 15 min. The supernatant (100 μL) was collected, diluted with 100 μL of water, 0.1% formic acid and analyzed by LC-HRMS (TripleTOF 6600+, AB Sciex). For each test compound, the area ratios at each time point were compared to the 0 h area ratio and converted to a percentage remaining.

[3] = Pharmacokinetics in male Sprague Dawley rats after subcutaneous administration; assay type: in vivo; details: plasma, rat
[4] = In vitro plasma stability, rat plasma; assay type: in vitro ADME; design: remaining at 2 h: dose or concentration left out as unconfirmed; details: Rat PLM, 37° C.
CFR1R receptor = target: T2, CFR1R receptor (Homo sapiens, UniProt P34998); assay: Activity at anti-target CFR1R receptor, cAMP assay in CRF1R-overexpression CHO-K1 cells; assay type: cell-based; details: 100% = Sauvagine at 100 nM; for EC50: cAMP
T2 construct: host or cells: CHO-K1 (clone 2)
T2 sequence (P34998 24-415): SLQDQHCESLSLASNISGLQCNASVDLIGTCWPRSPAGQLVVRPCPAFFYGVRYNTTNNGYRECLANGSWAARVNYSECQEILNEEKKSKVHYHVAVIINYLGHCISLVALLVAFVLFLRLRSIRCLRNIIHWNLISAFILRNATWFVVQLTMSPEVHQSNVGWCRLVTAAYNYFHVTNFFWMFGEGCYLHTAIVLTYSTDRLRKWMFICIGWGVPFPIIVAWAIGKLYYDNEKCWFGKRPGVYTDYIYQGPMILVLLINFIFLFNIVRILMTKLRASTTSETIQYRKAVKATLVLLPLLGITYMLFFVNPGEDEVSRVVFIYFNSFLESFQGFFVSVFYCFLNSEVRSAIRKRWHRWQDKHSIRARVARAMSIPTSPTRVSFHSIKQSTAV
Procedure, shortened: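 Grow clone 2 to near confluence at 37° C. under 5% CO2 in F12 (Hams) with 10% FBS and G418, harvest, and freeze in 10% DMSO. Thaw and plate at 4000 cells/well. Then proceed per the TeloHAEC method, normalising to Sauvagine 100 nM as maximum.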

[5] = In vitro subcutaneous tissue supernatant (SCts) stability and metabolite identification, rat; assay type: in vitro ADME; design: remaining at 2 h: dose or concentration left out as unconfirmed; details: male, Sprague Dawley; rat subcutaneous tissue supernatant (SCts), 37° C, 2 h

| AUC(0-t) [1] | Cmax [1] | EC50 (human CRF2a receptor) | remaining at 2 h [2] | AUC(0-t) ([3]; IV, 0.05 mg/kg) | half-life ([3]; IV, 0.05 mg/kg) | Tmax ([3]; SC, 0.1 mg/kg) | half-life ([3]; SC, 0.1 mg/kg) | remaining at 2 h ([4]; male, Sprague Dawley, plasma) | Emax (% I) (CFR1R receptor) | EC50 (CFR1R receptor) | remaining at 2 h [5] | % remaining at 2 hours [4] | SMILES |
| --- | --- | --- | --- | --- | --- | --- | --- | --- | --- | --- | --- | --- | --- |
| 4430 ng·h/mL | 291 ng/mL | 300 pM | 97% | 3880 ng·h/mL | 4.8 h | 5 h | 5 h | 95% | 9 % I | > 250000 pM | 77% |  | CC[C@H](C)[C@H](NC(C)=O)C(=O)N[C@H](C(=O)N[C@@H](CC(C)C)C(=O)N[C@@H](CO)C(=O)N[C@@H](CC(C)C)C(=O)N[C@@H](CC(=O)O)C(=O)N[C@@H](C(=O)N1CCC[C@H]1C(=O)N[C@H](C(=O)N[C@@H](CCCCN)C(=O)N[C@@](C)(CC(C)C)C(=O)N[C@@H](CCCCNC(=O)COCCOCCNC(=O)COCCOCCNC(=O)CC[C@H](NC(=O)CCCCCCCCCCCCCCCCC(=O)O)C(=O)O)C(=O)N[C@@H](CCCCN)C(=O)N[C@H](C(=O)N[C@@H](CC(C)C)C(=O)N[C@@H](CC(C)C)C(=O)N[C@@H](CCC(=O)O)C(=O)N[C@@H](CCC(N)=O)C(=O)N[C@@H](CCC(=O)O)C(=O)N[C@@H](CCCCN)C(=O)N[C@@H](CCC(N)=O)C(=O)N[C@@H](CCCCN)C(=O)N[C@@H](CCCCN)C(=O)N[C@@H](CCC(N)=O)C(=O)N[C@@H](CCCNC(=N)N)C(=O)N[C@@H](CCC(=O)O)C(=O)N[C@@H](CCC(N)=O)C(=O)N[C@@H](C)C(=O)N[C@@H](CCC(=O)O)C(=O)N[C@H](C(=O)N[C@@H](CC(N)=O)C(=O)NC(C)(C)C(=O)N[C@@H](CCC(N)=O)C(=O)N[C@H](C(=O)N[C@@H](CC(C)C)C(=O)N[C@@H](C)C(=O)N[C@@H](CCC(N)=O)C(=O)N[C@H](C(N)=O)C(C)C)[C@@H](C)CC)[C@@H](C)O)[C@@H](C)CC)[C@@H](C)CC)C(C)C)C(C)C [compound 110] (Ac-IVLSLD[dV]PIK[αMeL]K([AEEA-AEEA-γGlu-C18 diacid])KILLEQEKQKKQREQAETN[Aib]QILAQV-NH2) |
| 3540 ng·h/mL | 225 ng/mL | 600 pM | 91% | 3900 ng·h/mL | 5.2 h | 8 h | 5.2 h |  | 7 % I | > 250000 pM |  | 128% | CC[C@H](C)[C@H](NC)C(=O)N[C@H](C(=O)N[C@@H](CC(C)C)C(=O)N[C@@H](CO)C(=O)N[C@@H](CC(C)C)C(=O)N[C@@H](CC(=O)O)C(=O)N[C@@H](C(=O)N1CCC[C@H]1C(=O)N[C@H](C(=O)N[C@@H](CCCCN)C(=O)N[C@@H](CC(C)C)C(=O)N[C@@H](CCCCNC(=O)COCCOCCNC(=O)COCCOCCNC(=O)CC[C@H](NC(=O)CCCCCCCCCCCCCCCCC(=O)O)C(=O)O)C(=O)N[C@@H](CCCCN)C(=O)N[C@H](C(=O)N[C@@H](CC(C)C)C(=O)N[C@@H](CC(C)C)C(=O)N[C@@H](CCC(=O)O)C(=O)N[C@@H](CCC(N)=O)C(=O)N[C@@H](CCC(=O)O)C(=O)N[C@@H](CCCCN)C(=O)N[C@@H](CCC(N)=O)C(=O)N[C@@H](CCCCN)C(=O)N[C@@H](CCCCN)C(=O)N[C@@H](CCC(N)=O)C(=O)N[C@@H](CCCNC(=N)N)C(=O)N[C@@H](CCC(=O)O)C(=O)N[C@@H](CCC(N)=O)C(=O)N[C@@H](C)C(=O)N[C@@H](CCC(=O)O)C(=O)N[C@H](C(=O)N[C@@H](CC(N)=O)C(=O)NC(C)(C)C(=O)N[C@@H](CCC(N)=O)C(=O)N[C@H](C(=O)N[C@@H](CC(C)C)C(=O)N[C@@H](C)C(=O)N[C@@H](CCC(N)=O)C(=O)N[C@H](C(N)=O)C(C)C)[C@@H](C)CC)[C@@H](C)O)[C@@H](C)CC)[C@@H](C)CC)C(C)C)C(C)C [compound 118] (H-[NMeI]VLSLD[dV]PIKLK([AEEA-AEEA-γGlu-C18 diacid])KILLEQEKQKKQREQAETN[Aib]QILAQV-NH2) |
| 5770 ng·h/mL | 197 ng/mL | 110 pM |  | 8100 ng·h/mL | 8 h | 8 h | 8 h |  | 42 % I |  | 73% |  | CC[C@H](C)[C@H](NC(C)=O)C(=O)N[C@H](C(=O)N[C@@H](CC(C)C)C(=O)N[C@@H](CO)C(=O)N[C@@H](CC(C)C)C(=O)N[C@@H](CC(=O)O)C(=O)N[C@@H](C(=O)N1CCC[C@H]1C(=O)N[C@H](C(=O)N[C@@H](CCCCN)C(=O)N[C@@H](CC(C)C)C(=O)N[C@@H](CCCCNC(=O)CC[C@H](NC(=O)CCCCCCCCCCCCCCCCCCC(=O)O)C(=O)O)C(=O)N[C@@H](CCCCN)C(=O)N[C@H](C(=O)N[C@@H](CC(C)C)C(=O)N[C@@H](CC(C)C)C(=O)N[C@@H](CCC(=O)O)C(=O)N[C@@H](CCC(N)=O)C(=O)N[C@@H](CCC(=O)O)C(=O)N[C@@H](CCCCN)C(=O)N[C@@H](CCC(N)=O)C(=O)N[C@@H](CCCCN)C(=O)N[C@@H](CCCCN)C(=O)N[C@@H](CCC(N)=O)C(=O)N[C@@H](CCCNC(=N)N)C(=O)N[C@@H](CCC(=O)O)C(=O)N[C@@H](CCC(N)=O)C(=O)N[C@@H](C)C(=O)N[C@@H](CCC(=O)O)C(=O)N[C@H](C(=O)N[C@@H](CC(N)=O)C(=O)NC(C)(C)C(=O)N[C@@H](CCC(N)=O)C(=O)N[C@H](C(=O)N[C@@H](CC(C)C)C(=O)N[C@@H](C)C(=O)N[C@@H](CCC(N)=O)C(=O)N[C@H](C(N)=O)C(C)C)[C@@H](C)CC)[C@@H](C)O)[C@@H](C)CC)[C@@H](C)CC)C(C)C)C(C)C [compound 206] (Ac-IVLSLD[dV]PIKLK([γGlu-C20 diacid])KILLEQEKQKKQREQAETN[Aib]QILAQV-NH2) |
| 9410 ng·h/mL | 325 ng/mL | 120 pM |  | 7320 ng·h/mL | 8 h | 7 h | 10 h |  | 19 % I | > 250000 pM | 84% |  | CC[C@H](C)[C@H](NC)C(=O)N[C@H](C(=O)N[C@@H](CC(C)C)C(=O)N[C@@H](CO)C(=O)N[C@@H](CC(C)C)C(=O)N[C@@H](CC(=O)O)C(=O)N[C@@H](C(=O)N1CCC[C@H]1C(=O)N[C@H](C(=O)N[C@@H](CCCCN)C(=O)N[C@@H](CC(C)C)C(=O)N[C@@H](CCCCNC(=O)CC[C@H](NC(=O)CCCCCCCCCCCCCCCCCCC(=O)O)C(=O)O)C(=O)N[C@@H](CCCCN)C(=O)N[C@H](C(=O)N[C@@H](CC(C)C)C(=O)N[C@@H](CC(C)C)C(=O)N[C@@H](CCC(=O)O)C(=O)N[C@@H](CCC(N)=O)C(=O)N[C@@H](CCC(=O)O)C(=O)N[C@@H](CCCCN)C(=O)N[C@@H](CCC(N)=O)C(=O)N[C@@H](CCCCN)C(=O)NC(C)(C)C(=O)N[C@@H](CCC(N)=O)C(=O)N[C@@H](CCCNC(=N)N)C(=O)N[C@@H](CCC(=O)O)C(=O)N[C@@H](CCC(N)=O)C(=O)N[C@@H](C)C(=O)N[C@@H](CCC(=O)O)C(=O)N[C@H](C(=O)N[C@@H](CC(N)=O)C(=O)NC(C)(C)C(=O)N[C@@H](CCC(N)=O)C(=O)N[C@H](C(=O)N[C@@H](CC(C)C)C(=O)N[C@@H](C)C(=O)N[C@@H](CCC(N)=O)C(=O)N[C@H](C(N)=O)C(C)C)[C@@H](C)CC)[C@@H](C)O)[C@@H](C)CC)[C@@H](C)CC)C(C)C)C(C)C [compound 215] (H-[NMeI]VLSLD[dV]PIKLK([γGlu-C20 diacid])KILLEQEKQK[Aib]QREQAETN[Aib]QILAQV-NH2) |

Source: patent publication US20260001928A1 (CORTERIA PHARMACEUTICALS, priority 2022, published 2026)
